US5281628A, “9-amino-7-(substituted)-6-demethyl-6-deoxytetracyclines” (American Cyanamid Company, priority 1991, dated 1994)
Where a name gives a salt, the structure may show the parent alone. Read-outs that look alike come from different tables or passages of the source.

Legend:
[1] = test system: E. coli ATCC 25922; experiment: MIC, microtiter broth dilution; type: cell-based; conditions: Escherichia coli, ATCC25922, 18 h
Description: (§1) The minimum inhibitory concentration (MIC), the lowest concentration of the antibiotic which inhibits growth of the test organism, is determined by the microtiter broth dilution method using 0.1 ml Muller-Hinton II broth (Baltimore Biological Laboratories) per well. A suitable oxygen scavenger (i.e., cysteine or dithiothreitol) is added to the assay medium for the testing of compounds according to Formula I because of the sensitivity of those compounds to oxidation. An inoculum level of 1-5×10^5 CFU/ml and a range of antibiotic concentrations (32 0.004 μg/ml) are used.

[2] = test system: E. faecalis 12201 (vancomycin-resistant); experiment: MIC, microtiter broth dilution; type: cell-based; conditions: Enterococcus faecalis, 18 h
Description: as §1

[3] = test system: E. faecalis ATCC 29212; experiment: MIC, microtiter broth dilution; type: cell-based; conditions: Enterococcus faecalis, ATCC29212, 18 h
Description: as §1

[4] = test system: E. faecalis CI 2735; experiment: MIC, microtiter broth dilution; type: cell-based; conditions: Enterococcus faecalis, CI2735, 18 h
Description: as §1

[5] = test system: S. aureus IVES 2943 (methicillin-resistant); experiment: MIC, microtiter broth dilution; type: cell-based; conditions: Staphylococcus aureus, 18 h
Description: as §1

[6] = test system: S. aureus UBMS 88-4 (tetracycline-sensitive); experiment: MIC, microtiter broth dilution; type: cell-based; conditions: Staphylococcus aureus, 18 h
Description: as §1

[7] = test system: S. haemolyticus AVAH 88-3; experiment: MIC, microtiter broth dilution; type: cell-based; conditions: Staphylococcus haemolyticus, AVAH883, 18 h
Description: as §1

[8] = test system: S. marcescens FPOR 87-33; experiment: MIC, microtiter broth dilution; type: cell-based; conditions: Serratia marcescens, FPOR8733, 18 h
Description: as §1

[9] = test system: E. coli S30 Ribosomes, Wild Type (tetracycline sensitive); experiment: In vitro protein translation with E. coli S30 ribosomes, wild type; type: biochemical; conditions: for inhibition of protein synthesis on wild type ribosomes (in words): coupled transcription and translation system
Description: The E. coli in vitro translation system can be used to study not only the mechanism of protein translation itself, but also the effect that various compounds may have on protein synthesis. The system can be set up to function as a coupled transcription and translation system or as a translation only system depending on whether DNA or RNA is added to initiate protein synthesis. In this way, compounds affecting either RNA synthesis and/or protein synthesis can be studied. Protein synthesis is monitored by the incorporation of radiolabeled amino acids into trichloroacetic acid precipitable material. The system used is based upon literature methods [G. Zubay, Ann. Rev. Genet., 7: 267-287(1973) and J. Collins, Gene, 6: 28-42 (1979)].
The system used to study tetracycline protein synthesis inhibition is as follows:
An S30 extract (supernatant from a 30,000×G centrifugation of lysed cells) of either tetracycline sensitive or tetracycline resistant (tetM+) cells is combined with a mixture of low molecular weight compounds required for protein synthesis which include a mixture of 19 amino acids, methionine, ^35 S-methionine, plasmid template DNA and either dimethylsulfoxide (DMSO) or the tetracycline to be tested dissolved and diluted in DMSO. This mixture is incubated at 37° C. for 30 minutes. Following the incubation, 2.5 μl of the 10 μl reaction is removed and added to 0.5 ml of 1N sodium hydroxide. The solution is incubated an additional 15 minutes at 37° C., to destroy any m-RNA and t-RNA. The incorporation of ^35 S-methionine is determined by precipitating the high molecular weight material in the sodium hydroxide aliquot with trichloroacetic acid (TCA), collecting the precipitated material on Whatman G/FC filters, drying the filters and counting the radioactivity retained on the filter. Percent inhibition (P.I.) of protein synthesis is determined by the following equation: [formula]

[10] = test system: S. aureus and E. coli; experiment: Acute lethal infections in mice, statements over several strains; type: in vivo; conditions: S. aureus and E. coli carrying tetM
Description: The therapeutic effects of tetracyclines are determined against acute lethal infections with various staphylococcal and E. coli strains. Female mice, strain CD-1 Charles River Laboratories, (20±2 grams) are challenged by an intraperitoneal injection of sufficient bacteria (suspended in broth or hog gastric mucin) to kill non-treated controls within 24-48 hours. Antibacterial agents, contained in 0.5 ml of 0.2% aqueous agar, are administered subcutaneously or orally 30 minutes after infection. When an oral dosing schedule is used, animals are deprived of food for 5 hours before and 2 hours after infection. Five mice are treated at each dose level. The 7 day survival ratios from three separate tests are pooled for calculation of median effective dose (ED50).

[11] = test system: E. coli UBMS 89-2 (tetracycline-sensitive); experiment: MIC, microtiter broth dilution; type: cell-based; conditions: Escherichia coli, 18 h, no cysteine stated
Description: as §1

[12] = test system: E. coli UBMS 90-4 (tetM); experiment: MIC, microtiter broth dilution; type: cell-based; conditions: Escherichia coli, 18 h
Description: as §1

[13] = test system: M. morganii NEMC 87-119; experiment: MIC, microtiter broth dilution; type: cell-based; conditions: Morganella morganii, NEMC87119, 18 h, no cysteine stated
Description: as §1

[14] = test system: X. maltophilia FPOR 87-210; experiment: MIC, microtiter broth dilution; type: cell-based; conditions: Stenotrophomonas maltophilia, FPOR87210, 18 h, no cysteine stated
Description: as §1

[15] = test system: E. coli UBMS 88-1 (tetB); experiment: microbe, parasite or virus in culture; type: cell-based; conditions: Escherichia coli, 18 h
Description: as §1

[16] = test system: S. aureus UBMS 88-7 (tetK); experiment: microbe, parasite or virus in culture; type: cell-based; conditions: Staphylococcus aureus, 18 h
Description: as §1

[17] = in the presence of cysteine (0.05%)
[18] = Wild Type S30 no DTT, 1.0 mg/ml
[19] = Wild Type S30 no DTT, 1:2 Dilution
[20] = Wild Type S30 no DTT, 1:4 Dilution
[21] = Wild Type S30 no DTT, 1:8 Dilution
[22] = Wild Type S30 no DTT, 1:16 Dilution
[23] = Wild Type S30 no DTT, 1:32 Dilution
[24] = Wild Type S30 no DTT, 1:64 Dilution
[25] = Wild Type S30 with DTT, 1.0 mg/ml
[26] = Wild Type S30 with DTT, 1:2 Dilution
[27] = Wild Type S30 with DTT, 1:4 Dilution
[28] = Wild Type S30 with DTT, 1:8 Dilution
[29] = Wild Type S30 with DTT, 1:16 Dilution
[30] = Wild Type S30 with DTT, 1:32 Dilution
[31] = Wild Type S30 with DTT, 1:64 Dilution

## CN(C)c1cc(N)c(O)c2c1C[C@H]1C[C@H]3[C@H](N(C)C)C(O)=C(C(N)=O)C(=O)[C@@]3(O)C(O)=C1C2=O [A, 9-Amino-7-(dimethylamino)-6-demethyl-6-deoxytetracycline hydrochloride]
[1]; [17]
  MIC: 0.25 µg/mL
[2]; [17]
  MIC: 0.5 µg/mL
[3]; [17]
  MIC: 0.06 µg/mL
[4]; [17]
  MIC: 0.5 µg/mL
[5]; [17]
  MIC: 0.5 µg/mL
[6]; [17]
  MIC: 0.015 µg/mL
[7]; S. haemolyticus AVAH 88-3, in the presence of cysteine (0.05%), read-out: MIC
  MIC: 0.06 µg/mL
[8]; [17]
  MIC: 4 µg/mL
[9]; [18]
  % Inhibition: 88%
  Counts: 52595
[9]; [19]
  % Inhibition: 82%
  Counts: 80494
[9]; [20]
  % Inhibition: 79%
  Counts: 95015
[9]; [21]
  % Inhibition: 72%
  Counts: 130209
[9]; [22]
  % Inhibition: 55%
  Counts: 205392
[9]; [23]
  % Inhibition: 35%
  Counts: 297786
[9]; [24]
  % Inhibition: 46%
  Counts: 245494
[9]; [25]
  % Inhibition: 96%
  Counts: 38121
[9]; [26]
  % Inhibition: 93%
  Counts: 60891
[9]; [27]
  % Inhibition: 89%
  Counts: 92203
[9]; [28]
  % Inhibition: 84%
  Counts: 143215
[9]; [29]
  % Inhibition: 75%
  Counts: 214831
[9]; [30]
  % Inhibition: 73%
  Counts: 238321
[9]; [31]
  % Inhibition: 56%
  Counts: 380103
[9]
  inhibition of protein synthesis on wild type ribosomes (in words): effectively inhibit protein synthesis
[10]
  ED50 compared with B, strains which carry the tetM resistance determinant: Lowered ED50 's

## CN(C)c1ccc(O)c2c1C[C@H]1C[C@H]3[C@H](N(C)C)C(O)=C(C(N)=O)C(=O)[C@@]3(O)C(O)=C1C2=O [B, 7-(Dimethylamino)-6-demethyl-6-deoxytetracycline hydrochloride]
[1]; no cysteine stated
  MIC: 0.25 µg/mL
[11]
  MIC: 0.5 µg/mL
[12]
  MIC: > 32 µg/mL
[2]; no cysteine stated
  MIC: 4 µg/mL
[3]; no cysteine stated
  MIC: 0.25 µg/mL
[4]; no cysteine stated
  MIC: 4 µg/mL
[13]
  MIC: 2 µg/mL
[5]; no cysteine stated
  MIC: 1 µg/mL
[6]; no cysteine stated
  MIC: 0.008 µg/mL
[7]
  MIC: 0.12 µg/mL
[8]; no cysteine stated
  MIC: 2 µg/mL
[14]
  MIC: 0.06 µg/mL
[15]
  MIC: 8 µg/mL
[16]
  MIC: 0.03 µg/mL
[9]; [18]
  % Inhibition: 87%
  Counts: 57696
[9]; [19]
  % Inhibition: 83%
  Counts: 76804
[9]; [20]
  % Inhibition: 88%
  Counts: 53400
[9]; [21]
  % Inhibition: 64%
  Counts: 162405
[9]; [22]
  % Inhibition: 53%
  Counts: 213077
[9]; [23]
  % Inhibition: 33%
  Counts: 306650
[9]; [24]
  % Inhibition: 0%
  Counts: 457601
[9]; [25]
  % Inhibition: 93%
  Counts: 58885
[9]; [26]
  % Inhibition: 91%
  Counts: 78961
[9]; [27]
  % Inhibition: 87%
  Counts: 111971
[9]; [28]
  % Inhibition: 83%
  Counts: 149792
[9]; [29]
  % Inhibition: 76%
  Counts: 207484
[9]; [30]
  % Inhibition: 67%
  Counts: 289304
[9]; [31]
  % Inhibition: 41%
  Counts: 518601
[9]
  inhibition of protein synthesis on wild type ribosomes (in words): effectively inhibit protein synthesis
